# Measurements taken from ChEMBL document CHEMBL1201862, “PubChem BioAssay data set” (2004).
#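 Assay format: 96-well plates, 48-hour exposure. GI50 marks 50% less growth.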 Calls of active or inactive are those of the source. No stated cut-off is given here; in the data, active = GI50 up to about 1.1 µM and inactive = higher.
# What was measured:
# Assay in all cases: NCI-60 cell line screen, 48 h
# [1] = system: EKVX
# [2] = system: RPMI-8226
# [3] = system: MCF7
# [4] = system: DU-145
# [5] = system: HOP-92
# [6] = system: 786-0
# [7] = system: SK-MEL-2
# [8] = system: A549
# [9] = system: COLO 205
# [10] = system: HOP-62
# [11] = system: HT-29
# [12] = system: NCI-H460
# [13] = system: SR
# [14] = system: NCI-H226
# [15] = system: HL-60
# [16] = system: UACC-62
# [17] = system: NCI/ADR-RES
# [18] = system: T47D
# [19] = system: MDA-MB-231
# [20] = system: LOX IMVI
SMILES,GI50 [1],GI50 [2],GI50 [3],GI50 [4],GI50 [5],GI50 [6],GI50 [7],GI50 [8],GI50 [9],GI50 [10],GI50 [11],GI50 [12],GI50 [13],GI50 [14],GI50 [15],GI50 [16],GI50 [17],GI50 [18],GI50 [19],GI50 [20]
CCC1(C)NC(c2cnccn2)=NN1c1ccc(Cl)cc1 (stereo not given),> 100 µM (inactive),30 µM (inactive),45.4 µM (inactive),65.2 µM (inactive),> 100 µM (inactive),73.8 µM (inactive),> 100 µM (inactive),> 100 µM (inactive),> 100 µM (inactive),> 100 µM (inactive),88.1 µM (inactive),81.7 µM (inactive),22.1 µM (inactive),> 100 µM (inactive),48.8 µM (inactive),> 100 µM (inactive),> 100 µM (inactive),15.5 µM (inactive),> 100 µM (inactive),35.9 µM (inactive)
O=c1c(Br)c(-c2ccccc2)[s+]([O-])c2ccccc12 (stereo not given),16.4 µM (inactive),1.61 µM (inactive),2.96 µM (inactive),14.2 µM (inactive),10.5 µM (inactive),2.7 µM (inactive),18.4 µM (inactive),24.2 µM (inactive),1.89 µM (inactive),2.43 µM (inactive),13.2 µM (inactive),17.9 µM (inactive),2.06 µM (inactive),15.8 µM (inactive),2.11 µM (inactive),13.7 µM (inactive),16.7 µM (inactive),2.8 µM (inactive),14.8 µM (inactive),11.8 µM (inactive)
O=C1CSC(c2ccccc2)N1c1ccc(-n2c(-c3ccccc3)nc3ccccc3c2=O)cc1 (stereo not given),> 75.7 µM (inactive),42.6 µM (inactive),> 92 µM (inactive),> 100 µM (inactive),> 61.1 µM (inactive),> 92.9 µM (inactive),> 100 µM (inactive),> 74.6 µM (inactive),54.2 µM (inactive),> 100 µM (inactive),61.4 µM (inactive),46.3 µM (inactive),26.9 µM (inactive),> 77.3 µM (inactive),41.8 µM (inactive),33.3 µM (inactive),64.6 µM (inactive),34.8 µM (inactive),47.2 µM (inactive),50.5 µM (inactive)
COC(=O)[C@]1(CCC(C)=O)C(=O)C=CN([C@H](C)c2ccccc2)[C@@H]1Cc1ccc(OC)c(OCc2ccccc2)c1I,29.6 µM (inactive),14.7 µM (inactive),19.2 µM (inactive),16.7 µM (inactive),6.08 µM (inactive),17.8 µM (inactive),16.6 µM (inactive),20.4 µM (inactive),17.9 µM (inactive),22.8 µM (inactive),14.6 µM (inactive),15.9 µM (inactive),15.7 µM (inactive),15.7 µM (inactive),24 µM (inactive),14.8 µM (inactive),29.2 µM (inactive),13.5 µM (inactive),15.8 µM (inactive),17.2 µM (inactive)
O=c1c2ccccc2n2nnc3ccc(NCCNCCO)c1c32,2.08 µM (inactive),1.82 µM (inactive),3.24 µM (inactive),0.112 µM (active),1.88 µM (inactive),1.02 µM (active),3.19 µM (inactive),1.16 µM (inactive),0.946 µM (active),2.08 µM (inactive),0.74 µM (active),0.679 µM (active),0.649 µM (active),2.29 µM (inactive),1.71 µM (inactive),2.42 µM (inactive),1.08 µM (active),5.82 µM (inactive),2.85 µM (inactive),1.18 µM (inactive)
